Assay [1] concerns the target T1, human Gcg receptor (Homo sapiens, UniProt P47871).
T1 construct: expressed in transfected cells; crude membranes
In words: [125I]-Glucagon binding (SPA), human Gcg receptor. The conditions noted are these: read-out: hGLcgR Ki, nM (SEM, n). The method in brief:
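Scintillation counts are taken after membranes and WGA beads incubate and settle for 12 hours at room temperature. Buffer is 25 mM HEPES, pH 7.4, with CaCl2, MgCl2, bacitracin and Tween-20. Ki values, from four-parameter IC50 fits, are geometric means over independent days.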

Assay [2] has as its target T2, human GIP receptor (Homo sapiens, UniProt P48546).
T2 construct: expressed in transfected cells; crude membranes
T2 sequence (P48546 22-466): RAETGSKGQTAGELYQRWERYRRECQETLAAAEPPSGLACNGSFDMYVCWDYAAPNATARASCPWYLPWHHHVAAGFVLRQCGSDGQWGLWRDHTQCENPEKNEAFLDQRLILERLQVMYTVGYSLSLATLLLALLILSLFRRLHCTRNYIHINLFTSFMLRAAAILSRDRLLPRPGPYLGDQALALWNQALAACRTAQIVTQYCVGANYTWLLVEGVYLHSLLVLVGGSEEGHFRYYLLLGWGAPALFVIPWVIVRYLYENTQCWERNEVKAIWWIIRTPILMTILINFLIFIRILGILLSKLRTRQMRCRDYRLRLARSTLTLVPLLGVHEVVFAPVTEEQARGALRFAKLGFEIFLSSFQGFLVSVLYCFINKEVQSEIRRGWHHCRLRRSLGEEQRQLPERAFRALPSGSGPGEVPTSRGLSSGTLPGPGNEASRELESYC
In words: [125I]-GIP binding (SPA), human GIP receptor. To be noted: read-out: hGIPR Ki, nM (SEM, n).

Assay [3] has as its target human GLP-1 receptor (GLP-1R) (Homo sapiens, UniProt P43220). Kind of assay: cAMP pharmacological functional assay in presence of casein, hGLP-1R. The class given is cell-based. The conditions noted are these: HEK293 cells expressing hGLP-1R, 0.1% Casein, geometric mean; read-out: hGLP1R cAMP Rel EC50 nM (SEM, n).
In assay [4] the target is T3, gastric inhibitory peptide receptor (GIPR) (Homo sapiens, UniProt P48546).
T3 sequence (P48546 22-466): T2 sequence (P48546 22-466)
Kind of assay: cAMP pharmacological functional assay in presence of casein, hGIPR. In kind it is cell-based. The conditions noted are these: HEK293 cells expressing hGIPR, 0.1% Casein, geometric mean; read-out: hGIPR cAMP Rel EC50 nM (SEM, n).

Assay [5] deals with human GLP-1R (Homo sapiens, UniProt P43220). Kind of assay: [125I]-GLP-1 binding (SPA), human GLP-1 receptor. The arrangement: expressed in transfected cells; crude membranes. To be noted: read-out: hGLP1R Ki, (nM) (SEM, n). The method in brief:
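Assay buffer: HEPES 25 mM, pH 7.4, CaCl2 2.5 mM, MgCl2 1 mM, with EDTA-free protease inhibitors. Receptor came from crude cell membranes prepared by homogenization and centrifugation at 4° C. IC50s came from four-parameter fits (maximum, minimum, IC50, Hill slope) and were expressed as Ki geometric means with SEM.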

Numbered stars: 1 amine (or outer) side, 2 acyl side, 3 side chain; on linkers, the order of the positions; unused ones are H or OH. Square brackets hold non-standard residues; d marks the D form. Side chains are listed from the residue outwards. Peptide text beside a SMILES is read from it. * marks the point of attachment. C20 diacid = O=C(O)CCCCCCCCCCCCCCCCCCC(=O)*; γGlu = O=C(O)[C@H](CCC(=O)[*:2])N[*:1]; αMeF = C[C@](N)(Cc1ccccc1)C(=O)O; αMeL = CC(C)C[C@](C)(N)C(=O)O; AEEA = NCCOCCOCC(=O)O; Aib = CC(C)(N)C(=O)O

T1 sequence (P47871 26-477): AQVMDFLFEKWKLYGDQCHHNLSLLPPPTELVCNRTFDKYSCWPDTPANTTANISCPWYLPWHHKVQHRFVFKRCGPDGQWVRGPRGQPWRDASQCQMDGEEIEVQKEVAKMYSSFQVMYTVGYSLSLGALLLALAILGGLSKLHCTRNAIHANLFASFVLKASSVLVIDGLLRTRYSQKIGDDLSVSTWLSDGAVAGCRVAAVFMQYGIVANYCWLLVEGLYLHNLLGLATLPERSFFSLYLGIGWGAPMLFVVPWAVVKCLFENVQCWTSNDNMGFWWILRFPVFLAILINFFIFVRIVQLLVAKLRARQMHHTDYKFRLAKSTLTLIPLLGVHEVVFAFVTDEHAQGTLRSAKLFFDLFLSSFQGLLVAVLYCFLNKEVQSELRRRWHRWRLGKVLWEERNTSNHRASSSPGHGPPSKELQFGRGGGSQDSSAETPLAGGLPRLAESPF
human GLP-1R, sequence (P43220 24-463): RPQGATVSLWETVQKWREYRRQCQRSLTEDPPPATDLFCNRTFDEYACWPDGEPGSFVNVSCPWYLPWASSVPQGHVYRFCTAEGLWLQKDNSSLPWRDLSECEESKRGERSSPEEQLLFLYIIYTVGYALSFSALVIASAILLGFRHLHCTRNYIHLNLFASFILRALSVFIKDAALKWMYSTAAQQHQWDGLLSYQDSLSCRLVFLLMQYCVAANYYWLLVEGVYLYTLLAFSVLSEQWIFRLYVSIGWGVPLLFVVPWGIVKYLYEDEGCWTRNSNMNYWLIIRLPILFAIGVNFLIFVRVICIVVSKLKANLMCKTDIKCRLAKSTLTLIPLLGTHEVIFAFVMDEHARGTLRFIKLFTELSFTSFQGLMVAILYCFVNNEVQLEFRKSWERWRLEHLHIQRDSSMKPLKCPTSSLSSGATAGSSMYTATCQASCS
human GLP-1 receptor (GLP-1R), sequence (P43220 24-463): as above

As for `CC[C@H](C)[C@H](NC(=O)[C@H](CC(C)C)NC(=O)[C@H](Cc1ccc(O)cc1)NC(=O)[C@@H](CCC(=O)O)NC(=O)[C@@H](NC(=O)[C@H](Cc1ccccc1)NC(=O)[C@H](CCC(=O)O)NC(=O)C(C)(C)NC(=O)[C@H](CCC(N)=O)NC(=O)[C@H](C)NC(=O)[C@H](CCCCNC(=O)COCCOCCNC(=O)COCCOCCNC(=O)CC[C@H](NC(=O)CCCCCCCCCCCCCCCCCCC(=O)O)C(=O)O)NC(=O)[C@H](CCC(=O)O)NC(=O)[C@H](CC(=O)O)NC(=O)[C@H](CC(C)C)NC(=O)[C@](C)(CC(C)C)NC(=O)[C@@H](NC(=O)[C@H](CO)NC(=O)[C@H](Cc1ccc(O)cc1)NC(=O)[C@H](CC(=O)O)NC(=O)[C@H](CO)NC(=O)[C@@H](NC(=O)[C@](C)(Cc1ccccc1)NC(=O)[C@@H](NC(=O)CNC(=O)[C@H](CCC(=O)O)NC(=O)C(C)(C)NC(=O)[C@@H](N)Cc1ccc(O)cc1)[C@@H](C)O)[C@@H](C)O)[C@@H](C)CC)[C@@H](C)CC)C(=O)N[C@@H](CCC(=O)O)C(=O)NCC(=O)NCC(=O)N1CCC[C@H]1C(=O)N[C@@H](CO)C(=O)N[C@@H](CO)C(=O)NCC(=O)N[C@@H](C)C(=O)N1CCC[C@H]1C(=O)N1CCC[C@H]1C(=O)N1CCC[C@H]1C(=O)N[C@@H](CO)C(N)=O` [Example 227] (H-Y[Aib]EGT[αMeF]TSDYSI[αMeL]LDEK([AEEA-AEEA-γGlu-C20 diacid])AQ[Aib]EFI[dE]YLIEGGPSSGAPPPS-NH2), the Ki – broadly, a measure of affinity in units of concentration, obtained from inhibition or displacement – was 113 nM in assay [1], 0.0146 nM in assay [2] and 2.01 nM in assay [5]. In addition, the figures for the EC50 in assay [3] and in assay [4] were 0.0329 nM and 0.0414 nM, respectively.
For `CC[C@H](C)[C@H](NC(=O)[C@H](CC(C)C)NC(=O)[C@H](Cc1ccc(O)cc1)NC(=O)[C@@H](CCC(=O)O)NC(=O)[C@@H](NC(=O)[C@H](Cc1ccccc1)NC(=O)[C@H](CCC(=O)O)NC(=O)C(C)(C)NC(=O)[C@H](CCC(N)=O)NC(=O)[C@H](C)NC(=O)[C@H](CCCCNC(=O)COCCOCCNC(=O)COCCOCCNC(=O)CC[C@H](NC(=O)CCCCCCCCCCCCCCCCCCC(=O)O)C(=O)O)NC(=O)[C@H](CCCCN)NC(=O)[C@H](CC(=O)O)NC(=O)[C@H](CC(C)C)NC(=O)[C@](C)(CC(C)C)NC(=O)[C@@H](NC(=O)[C@H](CO)NC(=O)[C@H](Cc1ccc(O)cc1)NC(=O)[C@H](CC(=O)O)NC(=O)[C@H](CO)NC(=O)[C@@H](NC(=O)[C@](C)(Cc1ccccc1)NC(=O)[C@@H](NC(=O)CNC(=O)[C@H](CCC(=O)O)NC(=O)C(C)(C)NC(=O)[C@@H](N)Cc1ccc(O)cc1)[C@@H](C)O)[C@@H](C)O)[C@@H](C)CC)[C@@H](C)CC)C(=O)N[C@@H](CCC(=O)O)C(=O)NCC(=O)NCC(=O)N1CCC[C@H]1C(=O)N[C@@H](CO)C(=O)N[C@@H](CO)C(=O)NCC(N)=O` [Example 228] (H-Y[Aib]EGT[αMeF]TSDYSI[αMeL]LDKK([AEEA-AEEA-γGlu-C20 diacid])AQ[Aib]EFI[dE]YLIEGGPSSG-NH2), in that order: 182 nM, 0.028 nM, 2.43 nM, 0.0282 nM and 0.0503 nM.
